Source: ChEMBL document CHEMBL1201862, “PubChem BioAssay data set” (2004)
Calls of active or inactive are those of the source.

Experiments:
Aminopeptidase N = biological target: T1, Aminopeptidase N (Plasmodium falciparum FcB1/Columbia, UniProt O96935); assay: malaria alanyl aminopeptidase activity blockers – biochemical, fluorogenic H-Leu-NHMec substrate, 1536-well (AID 1445); design: species or system Plasmodium falciparum 3D7, 3D7
T1 sequence (O96935 whole entry): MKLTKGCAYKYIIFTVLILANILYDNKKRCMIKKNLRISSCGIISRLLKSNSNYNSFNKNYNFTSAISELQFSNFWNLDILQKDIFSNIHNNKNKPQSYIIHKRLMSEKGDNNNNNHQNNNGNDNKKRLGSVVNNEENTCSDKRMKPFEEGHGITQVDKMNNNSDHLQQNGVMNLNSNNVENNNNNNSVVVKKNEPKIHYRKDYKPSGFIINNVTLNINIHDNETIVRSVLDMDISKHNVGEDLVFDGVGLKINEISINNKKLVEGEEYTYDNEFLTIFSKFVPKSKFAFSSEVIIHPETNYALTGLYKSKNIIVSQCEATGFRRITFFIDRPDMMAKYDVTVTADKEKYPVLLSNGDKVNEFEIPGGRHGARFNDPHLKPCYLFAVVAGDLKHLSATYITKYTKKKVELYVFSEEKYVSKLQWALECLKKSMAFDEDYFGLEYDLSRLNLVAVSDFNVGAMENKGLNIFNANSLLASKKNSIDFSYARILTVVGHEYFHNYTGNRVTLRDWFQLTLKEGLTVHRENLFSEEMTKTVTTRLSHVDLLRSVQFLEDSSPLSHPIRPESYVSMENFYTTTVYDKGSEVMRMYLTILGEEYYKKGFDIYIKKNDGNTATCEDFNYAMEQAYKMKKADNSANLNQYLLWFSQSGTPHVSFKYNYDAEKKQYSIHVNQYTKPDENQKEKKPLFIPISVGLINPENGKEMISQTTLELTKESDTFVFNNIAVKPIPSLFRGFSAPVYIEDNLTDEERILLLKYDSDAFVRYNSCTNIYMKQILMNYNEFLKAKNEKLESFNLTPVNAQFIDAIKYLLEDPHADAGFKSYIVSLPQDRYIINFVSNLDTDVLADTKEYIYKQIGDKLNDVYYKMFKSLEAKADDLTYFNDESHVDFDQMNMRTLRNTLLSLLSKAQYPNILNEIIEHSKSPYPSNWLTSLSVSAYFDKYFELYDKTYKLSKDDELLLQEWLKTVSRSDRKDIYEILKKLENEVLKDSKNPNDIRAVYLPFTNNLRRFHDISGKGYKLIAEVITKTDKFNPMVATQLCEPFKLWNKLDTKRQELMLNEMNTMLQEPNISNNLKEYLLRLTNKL

Galanin receptor type 2 = Galanin receptor type 2 (Homo sapiens, UniProt O43603); assay: Dose Response cell-based high-throughput screening assay to identify agonists of galanin receptor 2 (GALR2). [Related pubchem assays: 864 ]; type: functional
[1] = biological target: T2, Short transient receptor potential channel 4 (Mus musculus, UniProt Q9QUQ5); assay: calcium entry via TRPC4 opening agents – cell-based, HEK293 TRPC4/mu-opioid, Fluo-4 calcium, dose response (AID 434937); type: functional
T2 sequence (Q9QUQ5 whole entry): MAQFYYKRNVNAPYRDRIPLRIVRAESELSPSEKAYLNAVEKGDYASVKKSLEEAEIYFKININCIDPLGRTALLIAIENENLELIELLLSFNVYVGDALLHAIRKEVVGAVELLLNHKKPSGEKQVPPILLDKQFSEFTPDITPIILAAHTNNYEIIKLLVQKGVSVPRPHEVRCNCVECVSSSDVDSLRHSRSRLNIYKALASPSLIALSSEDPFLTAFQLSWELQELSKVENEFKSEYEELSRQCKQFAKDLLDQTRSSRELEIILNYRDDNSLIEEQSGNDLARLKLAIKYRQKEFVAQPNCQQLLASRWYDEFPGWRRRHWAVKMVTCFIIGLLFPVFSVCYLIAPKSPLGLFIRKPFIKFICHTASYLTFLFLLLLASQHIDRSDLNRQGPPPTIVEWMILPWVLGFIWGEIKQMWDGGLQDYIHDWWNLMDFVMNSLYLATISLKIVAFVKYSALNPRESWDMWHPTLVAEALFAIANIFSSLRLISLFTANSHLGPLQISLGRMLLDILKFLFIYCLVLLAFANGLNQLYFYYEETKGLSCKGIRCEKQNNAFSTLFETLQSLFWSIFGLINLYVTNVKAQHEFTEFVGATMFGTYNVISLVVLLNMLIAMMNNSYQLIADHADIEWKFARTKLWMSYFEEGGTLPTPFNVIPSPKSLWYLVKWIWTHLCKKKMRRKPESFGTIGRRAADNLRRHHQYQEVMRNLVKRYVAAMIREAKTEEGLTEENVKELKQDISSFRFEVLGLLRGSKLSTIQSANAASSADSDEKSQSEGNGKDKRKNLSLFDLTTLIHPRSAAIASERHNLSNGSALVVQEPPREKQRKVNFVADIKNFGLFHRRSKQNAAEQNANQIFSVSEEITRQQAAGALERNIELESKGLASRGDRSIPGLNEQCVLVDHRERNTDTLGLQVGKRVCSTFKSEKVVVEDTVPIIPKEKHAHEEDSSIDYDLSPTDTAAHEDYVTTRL

[2] = biological target: Delta-type opioid receptor (Homo sapiens, UniProt P41143); assay: Counterscreen for agonists of heterodimerization of the mu 1 (OPRM1) and delta 1 (OPRD1) opioid receptors: Luminescence-based cell-based high throughput dose response assay to identify agonists of OPRD1 homodimerization. [Related pubchem assays (depositor defined):AID504326, AID504355, AID504692, AID504904, AID504905]; type: functional
Mu-type opioid receptor = Mu-type opioid receptor (Homo sapiens, UniProt P35372); assay: Counterscreen for agonists of heterodimerization of the mu 1 (OPRM1) and delta 1 (OPRD1) opioid receptors: Luminescence-based cell-based high throughput dose response assay to identify agonists of OPRM1 homodimerization.; type: functional;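 further: U2OS cells expressing OPRM1 and beta-arrestin as split beta-galactosidase partners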
[3] = biological target: 5-hydroxytryptamine receptor 5A (Homo sapiens, UniProt P47898); assay: Counterscreen for agonists of OPRM1-OPRD1 heterodimerization: luminescence-based cell-based high throughput dose response assay to identify agonists of 5-hydroxytryptamine (serotonin) 5A receptor (HTR5A). [Related pubchem assays (depositor defined):AID504326, AID504355, AID504692, AID504904, AID504905]; type: functional
Vero [4] = assay: cells; type: functional; conditions: Chlorocebus sabaeus
[5] = biological target: T3, DNA repair protein RAD52 homolog (Homo sapiens, UniProt P43351); type: functional, biochemical
T3 sequence (P43351 whole entry): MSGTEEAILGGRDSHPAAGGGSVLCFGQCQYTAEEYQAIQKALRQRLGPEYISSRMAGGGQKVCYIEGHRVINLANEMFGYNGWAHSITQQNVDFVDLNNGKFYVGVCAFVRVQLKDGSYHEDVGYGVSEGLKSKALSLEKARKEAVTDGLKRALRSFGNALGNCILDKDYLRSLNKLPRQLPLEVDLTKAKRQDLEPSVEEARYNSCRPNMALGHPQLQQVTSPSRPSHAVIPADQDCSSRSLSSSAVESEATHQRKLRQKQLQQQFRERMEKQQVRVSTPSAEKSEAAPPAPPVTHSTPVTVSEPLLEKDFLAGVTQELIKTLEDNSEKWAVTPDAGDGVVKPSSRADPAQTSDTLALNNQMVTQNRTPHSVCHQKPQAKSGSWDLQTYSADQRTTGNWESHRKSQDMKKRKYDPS

Vero [6] = assay: mammalian cell viability reduction – secondary assay, cytotoxicity control for West Nile virus antiviral project, dose response (AID 1650); type: functional; conditions: Chlorocebus sabaeus
[7] = Trypanosoma cruzi growth suppression in host cells – NIH3T3 host cells, beta-gal luminescence, confirmation (AID 2044); type: functional, cell-based;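 further: intracellular parasites grown in NIH/3T3 mouse fibroblasts as host cells; luminescent beta-galactosidase reporter signal from transgenic T. cruzi replicating inside host cells; inhibitors lower the luminescence signal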
[8] = viability of PTEN-deleted HCT116 cells – cell-based, HCT116 PTEN knockout, dose response (AID 1047); type: functional;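 further: HCT116 colon tumor cells with PTEN knocked out; cells exposed to compound for 60 hours before readout; potency for loss of cell viability measured by luminescence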
[9] = NIH3T3 cell viability loss – ATP luminescence, mouse fibroblasts, counter-screen, dose response (AID 2010); type: functional, cell-based;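 further: cells exposed to compound for about 90 hours before reading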
[10] = viability of HCT116 lacking mutant beta-catenin – cell-based, human colon tumor, dose response (AID 1045); type: functional;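 further: HCT116 colon tumor cells with beta catenin knocked out; cells exposed to compound for 60 hours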
HEK293 = assay: EBV LMP1 TES2 canonical NF-kB signalling blockers – cell-based, HEK293, luciferase, cherry-pick, dose response (AID 588343); type: functional; conditions: Homo sapiens
INS1 = assay: INS-1E survival protection against cytokine death – cell-based, luminescence, retest, dose response (AID 449756); type: functional; conditions: Rattus norvegicus;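 further: cell death triggered by IL-1 beta plus TNF-alpha plus IFN-gamma mixture; protective hits raise ATP signal compared with cytokine alone wells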
Paired box protein Pax-8 = Paired box protein Pax-8 (Homo sapiens, UniProt Q06710); assay: PAX8 transcriptional activity inhibition in RMG-I – RMG-I cells, luciferase, cherry-pick, dose response (AID 687027); type: functional, cell-based;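 further: luciferase reporter driven by Pax8 target thyroperoxidase promoter measured by SteadyGlo luminescence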
[11] = general cell-killing toxicity readout – plate reader, dry powder samples, cytotoxicity control for PAX8 inhibitor project, dose response (AID 743021); type: functional, cell-based
[12] = biological target: Protein-tyrosine kinase 2-beta (Homo sapiens, UniProt Q14289);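 further: potency of inhibitors of PYK2 kinase phosphorylation of poly-GT substrate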
Sequence of Protein-tyrosine kinase 2-beta (Q14289 whole entry): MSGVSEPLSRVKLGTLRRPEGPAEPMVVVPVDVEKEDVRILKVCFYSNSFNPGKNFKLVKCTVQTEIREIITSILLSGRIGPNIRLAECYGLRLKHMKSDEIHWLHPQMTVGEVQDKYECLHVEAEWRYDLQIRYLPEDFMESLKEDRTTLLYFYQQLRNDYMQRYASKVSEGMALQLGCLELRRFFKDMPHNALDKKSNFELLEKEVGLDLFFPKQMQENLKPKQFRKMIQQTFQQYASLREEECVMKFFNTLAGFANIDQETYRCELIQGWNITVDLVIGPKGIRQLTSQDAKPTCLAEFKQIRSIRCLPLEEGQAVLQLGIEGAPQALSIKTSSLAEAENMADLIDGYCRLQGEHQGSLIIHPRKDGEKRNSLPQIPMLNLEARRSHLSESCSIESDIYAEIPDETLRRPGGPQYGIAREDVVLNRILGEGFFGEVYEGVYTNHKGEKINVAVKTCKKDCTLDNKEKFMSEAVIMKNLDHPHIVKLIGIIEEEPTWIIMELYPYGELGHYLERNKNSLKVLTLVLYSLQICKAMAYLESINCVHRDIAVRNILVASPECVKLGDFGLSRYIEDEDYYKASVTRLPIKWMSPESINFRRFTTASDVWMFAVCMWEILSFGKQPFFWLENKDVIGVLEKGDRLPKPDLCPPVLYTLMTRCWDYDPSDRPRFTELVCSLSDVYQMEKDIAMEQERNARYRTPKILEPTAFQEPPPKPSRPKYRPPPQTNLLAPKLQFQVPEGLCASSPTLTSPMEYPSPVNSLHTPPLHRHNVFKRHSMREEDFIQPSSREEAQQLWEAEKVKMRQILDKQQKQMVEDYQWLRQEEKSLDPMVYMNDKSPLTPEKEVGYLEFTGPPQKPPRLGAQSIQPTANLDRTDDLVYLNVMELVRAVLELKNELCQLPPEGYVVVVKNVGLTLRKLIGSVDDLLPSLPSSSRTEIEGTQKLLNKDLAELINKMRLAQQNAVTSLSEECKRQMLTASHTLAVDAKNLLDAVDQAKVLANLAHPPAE

Sequence of Delta-type opioid receptor (P41143 whole entry): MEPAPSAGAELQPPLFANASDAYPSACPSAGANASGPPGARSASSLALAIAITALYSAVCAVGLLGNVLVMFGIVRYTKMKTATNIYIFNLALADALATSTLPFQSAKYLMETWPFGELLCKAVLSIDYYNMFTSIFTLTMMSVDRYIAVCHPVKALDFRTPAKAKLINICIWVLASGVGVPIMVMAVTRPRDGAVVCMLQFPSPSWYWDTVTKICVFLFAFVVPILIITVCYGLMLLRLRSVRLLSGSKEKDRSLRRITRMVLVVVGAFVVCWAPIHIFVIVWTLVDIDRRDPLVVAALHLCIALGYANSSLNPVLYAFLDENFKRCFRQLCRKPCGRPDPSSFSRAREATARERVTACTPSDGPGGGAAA
Sequence of Mu-type opioid receptor (P35372 whole entry): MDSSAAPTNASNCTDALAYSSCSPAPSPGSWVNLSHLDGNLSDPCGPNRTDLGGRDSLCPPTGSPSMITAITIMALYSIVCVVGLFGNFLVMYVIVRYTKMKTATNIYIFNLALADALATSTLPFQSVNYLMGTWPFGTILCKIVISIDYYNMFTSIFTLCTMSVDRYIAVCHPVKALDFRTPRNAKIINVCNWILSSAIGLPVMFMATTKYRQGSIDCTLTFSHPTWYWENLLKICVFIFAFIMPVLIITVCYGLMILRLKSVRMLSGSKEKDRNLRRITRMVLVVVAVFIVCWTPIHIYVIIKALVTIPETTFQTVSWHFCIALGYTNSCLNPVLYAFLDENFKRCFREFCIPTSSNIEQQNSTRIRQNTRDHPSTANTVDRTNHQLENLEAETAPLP
Sequence of Paired box protein Pax-8 (Q06710 whole entry): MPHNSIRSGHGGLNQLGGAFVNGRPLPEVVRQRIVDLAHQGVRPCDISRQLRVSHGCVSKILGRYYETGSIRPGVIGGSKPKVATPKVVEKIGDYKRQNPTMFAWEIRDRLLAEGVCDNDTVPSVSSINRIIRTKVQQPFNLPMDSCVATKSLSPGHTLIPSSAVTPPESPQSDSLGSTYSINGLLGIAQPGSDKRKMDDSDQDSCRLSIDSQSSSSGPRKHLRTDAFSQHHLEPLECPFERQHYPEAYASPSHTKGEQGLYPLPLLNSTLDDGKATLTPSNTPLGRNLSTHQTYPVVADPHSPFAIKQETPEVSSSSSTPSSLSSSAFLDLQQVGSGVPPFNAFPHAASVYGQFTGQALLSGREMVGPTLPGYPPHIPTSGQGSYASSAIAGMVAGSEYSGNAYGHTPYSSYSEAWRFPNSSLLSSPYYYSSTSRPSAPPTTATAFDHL
Sequence of 5-hydroxytryptamine receptor 5A (P47898 whole entry): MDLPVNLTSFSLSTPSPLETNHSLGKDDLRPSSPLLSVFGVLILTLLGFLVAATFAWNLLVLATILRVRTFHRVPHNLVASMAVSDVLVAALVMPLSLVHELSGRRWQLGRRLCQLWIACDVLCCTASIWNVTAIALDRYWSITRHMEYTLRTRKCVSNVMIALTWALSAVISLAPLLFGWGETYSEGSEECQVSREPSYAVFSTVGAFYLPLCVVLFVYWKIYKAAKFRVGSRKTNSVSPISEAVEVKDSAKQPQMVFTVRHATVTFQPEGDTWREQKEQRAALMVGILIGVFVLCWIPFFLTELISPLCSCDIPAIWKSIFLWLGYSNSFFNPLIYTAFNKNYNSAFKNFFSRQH
Sequence of Galanin receptor type 2 (O43603 whole entry): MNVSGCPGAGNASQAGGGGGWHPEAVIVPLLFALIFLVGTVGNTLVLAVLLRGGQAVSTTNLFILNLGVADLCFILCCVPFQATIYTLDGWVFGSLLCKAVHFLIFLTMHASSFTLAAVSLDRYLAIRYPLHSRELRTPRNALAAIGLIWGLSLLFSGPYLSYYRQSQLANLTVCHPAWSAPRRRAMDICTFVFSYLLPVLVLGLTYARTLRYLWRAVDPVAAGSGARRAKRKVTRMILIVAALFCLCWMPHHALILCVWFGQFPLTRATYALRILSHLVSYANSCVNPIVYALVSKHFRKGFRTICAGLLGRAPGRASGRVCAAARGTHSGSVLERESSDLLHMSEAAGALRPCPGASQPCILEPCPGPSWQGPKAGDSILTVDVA

COc1cc2c3cc1Oc1cc(ccc1O)C[C@@H]1c4c(cc(OC)c(O)c4Oc4ccc(cc4)C[C@H]3N(C)CC2)CCN1C
> 55.7 µM (not active): EC50 (Galanin receptor type 2)
active: IC50 (Aminopeptidase N) 15.2 µM | EC50 [1] 1.33 µM | CC50 (Vero [4]) 24.6 µM | AC50 [5] 35.2 µM
inactive: EC50 [2] 44.2 µM | EC50 (Mu-type opioid receptor) > 92.4 µM | EC50 [3] 79.2 µM

CCN(CC)S(=O)(=O)c1cc([N+](=O)[O-])ccc1NNC(=O)Nc1ccc(Cl)c(Cl)c1
active: CC50 (Vero [6]) 14.3 µM | EC50 [7] 2.03 µM | EC50 [8] 8.3 µM | EC50 [10] 7.99 µM | AC50 (HEK293) 22.9 µM | AC50 (INS1) 6.79 µM | AC50 (Paired box protein Pax-8) 8.91 µM | AC50 [11] 3.73 µM
> 60 µM (not active): EC50 [9]

Cc1n[nH]c(NC=C2C(=O)CC(C)(C)CC2=O)c1-c1ccccc1
21 µM (not active): IC50 [12]
